Test results as given in US11331326B2, “Composition for prevention or treatment of inflammatory skin diseases or severe pruritus comprising the aqueous solubilized ursodeoxycholic acid” (AMICOGEN PHARMA INC., priority 2016, dated 2022).
Converted amounts (≈) assume the structure as drawn.

Tests used:
[1] = Solubility of ursodeoxycholic acid in water; type: physicochemical; conditions: pH 1 to 8
[2] = protonated form (pH 1 to 8); cited from earlier work
[3] = crystalline type of ursodeoxycholic acid; cited from earlier work
[4] = oral administration, crystalline form of UDCA; cited from earlier work

solubility relative to the commercialized UDCA [1]	SMILES	solubility [2]	acid dissociation constant, pKa [3]	fraction absorbed at the ileum of the colon by the active transport mechanism [4]
about 10 times	C[C@H](CCC(=O)NCCS(=O)(=O)O)[C@H]1CC[C@H]2[C@@H]3[C@@H](O)C[C@@H]4C[C@H](O)CC[C@]4(C)[C@H]3CC[C@]12C [TUDCA, tauroursodeoxycholic acid]	0.45 mM (≈ 225 µg/mL)	–	–
–	C[C@H](CCC(=O)O)[C@H]1CC[C@H]2[C@@H]3[C@@H](O)C[C@@H]4C[C@H](O)CC[C@]4(C)[C@H]3CC[C@]12C [UDCA, ursodeoxycholic acid]	about 0.05 mM	about 5.0	up to 20 % of intakes
